Laboratory results from patent publication US20070154567A1, “Use of mercury to treat cancer” (priority 2006, published 2007).
Several values for one entry are separate records, joined by “and”; a condition that tells them apart may be missing. Equal values may be shown once.

Tested on: metastatic hepatocellular carcinoma
Assay: Oral inorganic mercury (II) treatment of a pet Husky after tumor removal: blood data and clinical follow-up
Format: in vivo, dog
Set-up: Corrected Calcium / MCV / MCH / MCHC / Neutrophils, absolute / Bands / Lymphocytes, absolute / Monocytes, absolute / Eosinophils, absolute / Basophils, absolute: unit not given here
Protocol: A 10 yrs old female Husky, 54 lbs was diagnosed with metastatic hepatocellular carcinoma. The tumor was surgically removed prior to treatment. The prognosis after the surgery was poor with 1-2 months of life expectancy.
The 90-day inorganic mercury (II) treatment consisted of two 30-day treatment courses and one 30-day interval period. The formulation contained 1 mM mercury acetate in 20 mM sodium acetate buffer, pH 4.5, with 100 mM sucrose and 150 mM sodium chloride additives. The formulation was introduced orally to the pet three times a day 1 hour before food at 0.5 micromole Hg^2+/kg/day. In the beginning of treatment the dog had high levels of alkaline phosphatase (ALP) and alanine transferase (ALT), two liver enzymes known to be associated with liver tumor progression (de Oliveira e Silva et al., Arq Gastroenterol. 1990, 27(2):83-94). […] On Day 3 ALP and ALT were 1950 U/L and 119 U/L, respectively. On day 30 ALP dropped to 495 U/L, whereas ALT was decreased to 27 U/L. Decreases in ALP and ALT levels were correlated well with the improvement of dog's general condition during the first treatment course. During the second treatment course, according to owner's and veterinarian's notes, the dog continued to show improvement and at the end of the treatment period it acted as a healthy dog. Unfortunately, the owner chose not to take blood tests after day 30.

CC(=O)[O-].CC(=O)[O-].[Hg+2] [inorganic mercury (II), mercury acetate]
health / cancer status of the dog (10 months after treatment): remains in good health and is apparently cancer-free
ALT (SGPT) (Day 3): 119 U/L and 119 (H) U/L
AST (SGOT) (Day 3): 30 U/L
Albumin (Day 3): 3.1 g/dL
Albumin/Globulin Ratio (Day 3): 1.1
Alkaline Phosphatase (ALP) (Day 3): 1950 U/L and 1950 (H) U/L
Amylase (Day 3): 369 U/L
BUN/Creatinine Ratio (Day 3): 17
Bands (Day 3): 0
Basophils, absolute (Day 3): 0
CPK (Day 3): 161 U/L
Calcium (Day 3): 9.4 mg/dL
Chloride (Day 3): 114 mE/L
Cholesterol (Day 3): 250 mg/dL
Corrected Calcium (Day 3): 9.8
Creatinine (Day 3): 1.0 mg/dL
Eosinophils, (%) (Day 3): 7%
Eosinophils, absolute (Day 3): 812
Globulin (Day 3): 2.8 g/dL
Glucose (Day 3): 94 mg/dL
Hematocrit (Day 3): 43.1%
Hemoglobin (Day 3): 14.7 g/dL
Lymphocytes, (%) (Day 3): 18%
Lymphocytes, absolute (Day 3): 2088
MCH (Day 3): 22.3
MCHC (Day 3): 34.1
MCV (Day 3): 65
Monocytes, (%) (Day 3): 4%
Monocytes, absolute (Day 3): 464
Neutrophils, (%) (Day 3): 71%
Neutrophils, absolute (Day 3): 8236
Phosphorus (Day 3): 3.8 mg/dL
Platelet count (Day 3): 394 10^3/microl
Potassium (Day 3): 4.5 mE/L
RBC (Day 3): 6.59 10^6/microl
Sodium (Day 3): 149 mE/L
Total Billirubin (Day 3): 0.1 mg/dL
Total Protein (Day 3): 5.9 g/dL
Urea Nitrogen (Day 3): 17 mg/dL
WBC (Day 3): 11.6 10^3/microl
ALT (SGPT) (Day 9): 51 U/L
AST (SGOT) (Day 9): 18 U/L
Albumin (Day 9): 3.2 g/dL
Albumin/Globulin Ratio (Day 9): 1.1
Alkaline Phosphatase (ALP) (Day 9): 1368 (H) U/L
Amylase (Day 9): 348 U/L
BUN/Creatinine Ratio (Day 9): 8
Bands (Day 9): 0
Basophils, absolute (Day 9): 0
CPK (Day 9): 119 U/L
Calcium (Day 9): 9.8 mg/dL
Chloride (Day 9): 115 mE/L
Cholesterol (Day 9): 237 mg/dL
Corrected Calcium (Day 9): 10.1
Creatinine (Day 9): 1.0 mg/dL
Eosinophils, (%) (Day 9): 3%
Eosinophils, absolute (Day 9): 405
Globulin (Day 9): 3.0 g/dL
Glucose (Day 9): 93 mg/dL
Hematocrit (Day 9): 53.1%
Hemoglobin (Day 9): 17.4 g/dL
Lymphocytes, (%) (Day 9): 15%
Lymphocytes, absolute (Day 9): 2025
MCH (Day 9): 21.8
MCHC (Day 9): 32.8
MCV (Day 9): 67
Monocytes, (%) (Day 9): 3%
Monocytes, absolute (Day 9): 405
Neutrophils, (%) (Day 9): 79%
Neutrophils, absolute (Day 9): 10665
Phosphorus (Day 9): 3.8 mg/dL
Platelet count (Day 9): 406 (H) 10^3/microl
Potassium (Day 9): 4.7 mE/L
RBC (Day 9): 7.97 10^6/microl
Sodium (Day 9): 152 mE/L
Total Billirubin (Day 9): 0.1 mg/dL
Total Protein (Day 9): 6.2 g/dL
Urea Nitrogen (Day 9): 8 mg/dL
WBC (Day 9): 13.5 10^3/microl
ALT (SGPT) (Day 30): 27 U/L
AST (SGOT) (Day 30): 26 U/L
Albumin (Day 30): 3.4 g/dL
Albumin/Globulin Ratio (Day 30): 1.1
Alkaline Phosphatase (ALP) (Day 30): 495 U/L and 495 (H) U/L
Amylase (Day 30): 349 U/L
BUN/Creatinine Ratio (Day 30): 16
Bands (Day 30): 0
Basophils, absolute (Day 30): 0
CPK (Day 30): 488 U/L
Calcium (Day 30): 10.3 mg/dL
Chloride (Day 30): 117 mE/L
Cholesterol (Day 30): 248 mg/dL
Corrected Calcium (Day 30): 10.4
Creatinine (Day 30): 0.9 mg/dL
Eosinophils, (%) (Day 30): 6%
Eosinophils, absolute (Day 30): 504
Globulin (Day 30): 3.0 g/dL
Glucose (Day 30): 113 mg/dL
Hematocrit (Day 30): 50.3%
Hemoglobin (Day 30): 15.8 g/dL
Lymphocytes, (%) (Day 30): 17%
Lymphocytes, absolute (Day 30): 1428
MCH (Day 30): 20.9
MCHC (Day 30): 31.4
MCV (Day 30): 66
Monocytes, (%) (Day 30): 4%
Monocytes, absolute (Day 30): 336
Neutrophils, (%) (Day 30): 73%
Neutrophils, absolute (Day 30): 6132
Phosphorus (Day 30): 3.3 mg/dL
Platelet count (Day 30): 385 10^3/microl
Potassium (Day 30): 4.1 mE/L
RBC (Day 30): 7.57 10^6/microl
Sodium (Day 30): 152 mE/L
Total Billirubin (Day 30): 0.1 mg/dL
Total Protein (Day 30): 6.4 g/dL
Urea Nitrogen (Day 30): 14 mg/dL
WBC (Day 30): 8.4 10^3/microl
levels of ALP and ALT (during the first treatment course): dramatically decreased
